By Kb is commonly meant the affinity of an antagonist, worked out from how it opposes an agonist.

Common to all, as to type: cell-based
In experiment [1] the target is T1, human prostanoid IP receptor (Homo sapiens, UniProt P43119).
T1 construct: expressed in transfected cells
The experiment is described as follows: FLIPR Ca2+ signaling antagonist assay, IP receptor stable cell line. The note with it: HEK-293 EBNA stable cells, standard agonist Cicaprost; NA = inactive (no antagonism or Kb≧10,000 nM). The protocol: (§1) The above compounds were tested for PG antagonist activity as follows using human recombinant prostanoid receptor (DP1, EP1-4, FP, IP and TP) stable cell lines:
(§2) In order to measure the response of Gs and Gi coupled prostanoid receptors as a Ca^2+ signal, chimeric G protein cDNAs were used. Stable cell lines over-expressing human prostanoid DP1, EP1-4, FP, IP, and TP receptors were established as follows:
(§3) Briefly, human prostanoid DP1, EP2, and EP4 receptor cDNAs were co-transfected with chimeric Gqs cDNA containing a haemagglutanin (HA) epitope; human prostanoid EP3 receptors were co-transfected with chimeric Gqi-HA; human EP1, FP, IP, and TP receptor cDNAs were expressed with no exogenous G-proteins. Gqs and Gqi chimeric cDNAs (Molecular Devices, Sunnyvale, Calif., U.S.A.), as well as cDNAs of prostanoid receptors, were cloned into a pCEP4 vector with a hygromycin B selection marker. Transfection into HEK-293 EBNA (Epstein-Barr virus nuclear antigen) cells was achieved by the FuGENE 6 transfection Reagent (Roche Applied Science, Indianapolis, Ind., USA). Stable transfectants were selected according to hygromycin resistance. Because Gqs and Gqi contained an HA epitope, G-protein expression was detected by Western blotting analysis using anti-mouse HA monoclonal antibody and horseradish peroxidase (HRP)-conjugated secondary antibody, while functional expression of prostanoid receptors was detected by FLIPR screening (Matias et al., 2004). These stable cell lines were validated using previously published antagonists at 10 μM against serial dilutions of standard agonists by FLIPR functional assays for Ca^2+ Signaling (as described below).
(§4) Ca^2+ signaling studies were performed using a FLIPR TETRA system (Molecular Devices, Sunnyvale, Calif., USA) in the 384-format. This is a high-throughput instrument for cell-based assays to monitor Ca^2+ signaling associated with GPCRs and ion channels. Cells were seeded at a density of 5×10^4 cells/well in BioCoat poly-D-lysine coated, black wall, clear bottom 384-well plates (BD Biosciences, Franklin lakes, NJ, USA) and allowed to attach overnight in an incubator at 37° C. The cells were then washed twice with HBSS-HEPES buffer (Hanks' balanced salt solution without bicarbonate and phenol red, 20 mM HEPES, pH 7.4) using an ELx405 Select CW Microplate Washer (BioTek, Winooski, Vt., USA). After 60 min of dye-loading in the dark using the Ca^2+-sensitive dye Fluo-4AM (Invitrogen, Carlsbad, Calif., USA), at a final concentration of 2×10^−6M, the plates were washed 4 times with HBSS-HEPES buffer to remove excess dye and leaving 50 μl of buffer in each well. The plates were then placed in the FLIPR TETRA instrument and allowed to equilibrate at 37° C. AGN-211377 was added in a 25 μl volume to each well to give final concentrations of 0.1 μM, 0.3 μM, 1 μM, 3 μM, 10 μM, and 30 μM; or 0.067 μM, 0.1 μM, 0.2 μM, 0.3 μM, 0.67 μM, and 1 μM for cells over-expressing TP receptors. After 4.5 minutes, a 7-point serial dilution of the standard agonist for the corresponding receptor, in a 25 μl volume was injected at the final concentrations from 10^−11M to 10^−5M in 10-fold serial dilution increments for cells expressing human recombinant DP1, EP1, EP2, EP3, EP4, FP, and IP receptors. The dose range for the standard agonist for human recombinant TP receptors was from 10^−12M to 10^−6M. HBSS-HEPES buffer was used as the negative control for the standard agonists. Cells were excited with LED (light emitting diode) excitation at 470-495 nm and emission was measured through an emission filter at 515-575 nm. Assay plates were read for 3.5 minutes using the FLIPR^TETRA. The peak increase in fluorescence intensity was recorded for each well. On each plate, negative controls, dose response of positive controls, and co-treatments of antagonist-agonist for each dose were in triplicates. Standard agonists were as follows: DP=BW 245C, EP1-EP4=PGE2, FP=17-phenyl-PGF2α, IP=Cicaprost, and TP=U-46619. […]

In experiment [2] the target is T2, human prostanoid FP receptor (Homo sapiens, UniProt P43088).
T2 construct: expressed in transfected cells
T2 sequence (P43088 whole entry): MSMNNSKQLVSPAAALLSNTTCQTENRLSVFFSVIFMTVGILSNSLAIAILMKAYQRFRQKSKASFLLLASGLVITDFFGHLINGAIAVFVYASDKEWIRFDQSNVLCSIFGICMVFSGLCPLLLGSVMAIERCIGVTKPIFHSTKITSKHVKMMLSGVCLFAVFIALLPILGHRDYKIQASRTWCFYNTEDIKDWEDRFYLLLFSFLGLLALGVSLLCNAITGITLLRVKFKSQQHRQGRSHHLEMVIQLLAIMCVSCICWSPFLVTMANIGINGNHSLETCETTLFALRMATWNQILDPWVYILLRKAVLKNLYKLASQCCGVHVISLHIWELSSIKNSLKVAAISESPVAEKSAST
The experiment can be described thus: FLIPR Ca2+ signaling antagonist assay, FP receptor stable cell line. The note with it: HEK-293 EBNA stable cells, standard agonist 17-phenyl-PGF2α; NA = inactive (no antagonism or Kb≧10,000 nM). How it is done:
as §1, §2, §3, §4

The target of experiment [3] is T3, human prostanoid TP receptor (Homo sapiens, UniProt P21731).
T3 construct: expressed in transfected cells
T3 sequence (P21731 1-343): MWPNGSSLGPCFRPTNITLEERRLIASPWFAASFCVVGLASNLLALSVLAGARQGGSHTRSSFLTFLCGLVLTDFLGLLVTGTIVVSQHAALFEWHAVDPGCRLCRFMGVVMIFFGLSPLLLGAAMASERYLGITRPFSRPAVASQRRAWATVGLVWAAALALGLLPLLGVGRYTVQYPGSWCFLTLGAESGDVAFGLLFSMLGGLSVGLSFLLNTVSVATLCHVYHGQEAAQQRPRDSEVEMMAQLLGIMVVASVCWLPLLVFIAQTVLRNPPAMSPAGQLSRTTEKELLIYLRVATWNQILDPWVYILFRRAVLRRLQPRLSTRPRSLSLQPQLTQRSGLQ
The experiment can be described thus: FLIPR Ca2+ signaling antagonist assay, TP receptor stable cell line. The note with it: HEK-293 EBNA stable cells, standard agonist U-46619; NA = inactive (no antagonism or Kb≧10,000 nM). How it is done: as §1, §2, §3, §4

The target in experiment [4] is T4, human prostanoid DP1 receptor (Homo sapiens, UniProt Q13258).
T4 construct: expressed in transfected cells
T4 sequence (Q13258 1-359): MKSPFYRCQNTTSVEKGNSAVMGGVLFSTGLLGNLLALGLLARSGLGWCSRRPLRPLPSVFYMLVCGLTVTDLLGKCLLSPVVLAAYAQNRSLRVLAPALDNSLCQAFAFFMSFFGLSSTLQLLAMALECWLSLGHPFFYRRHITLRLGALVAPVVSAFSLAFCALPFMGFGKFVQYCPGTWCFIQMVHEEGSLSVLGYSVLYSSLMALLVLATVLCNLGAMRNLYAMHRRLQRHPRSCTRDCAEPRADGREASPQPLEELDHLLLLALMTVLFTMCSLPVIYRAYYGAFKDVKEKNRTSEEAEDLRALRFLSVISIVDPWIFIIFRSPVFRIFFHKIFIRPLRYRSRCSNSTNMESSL
The experiment can be described thus: FLIPR Ca2+ signaling antagonist assay, DP1 receptor stable cell line. The following applies: HEK-293 EBNA stable cells with chimeric Gqs, standard agonist BW 245C; NA = inactive (no antagonism or Kb≧10,000 nM). The protocol: as §1, §2, §3, §4

T1 sequence (P43119 whole entry): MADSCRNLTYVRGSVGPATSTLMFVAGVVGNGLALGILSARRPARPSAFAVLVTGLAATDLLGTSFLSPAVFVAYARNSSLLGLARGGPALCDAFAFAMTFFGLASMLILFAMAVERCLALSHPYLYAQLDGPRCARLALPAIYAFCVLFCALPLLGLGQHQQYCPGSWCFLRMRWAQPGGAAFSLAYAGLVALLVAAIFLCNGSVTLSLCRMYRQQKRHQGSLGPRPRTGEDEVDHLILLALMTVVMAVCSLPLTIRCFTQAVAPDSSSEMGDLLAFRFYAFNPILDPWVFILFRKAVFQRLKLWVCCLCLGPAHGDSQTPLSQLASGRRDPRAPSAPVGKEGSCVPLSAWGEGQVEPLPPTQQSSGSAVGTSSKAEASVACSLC

As to `Cc1cc(CCC(=O)NS(=O)(=O)C(F)(F)F)nn1Cc1cc(Cl)ccc1OCc1ccc(Cl)cc1` [Example 1, N-(3-{1-[5-Chloro-2-(4-Chloro-Benzyloxy)-Benzyl]-5-Methyl-1H-Pyrazol-3-yl}-Propionyl)-C,C,C-Trifluoromethanesulfonamide], the Kb was 620 nM in experiment [1], 140 nM in experiment [2], 12 nM in experiment [3] and 280 nM in experiment [4].
Regarding `Cc1cc(CCC(=O)O)nn1Cc1cc(Br)ccc1OCC1CCCC1` [Example 4, 3-[1-(5-Bromo-2-cyclopentylmethoxybenzyl)-5-methyl-1H-pyrazol-3-yl]-propionic acid], the Kb was 1600 nM in experiment [1], 75 nM in experiment [2], 30 nM in experiment [3] and 240 nM in experiment [4].
In the same order, the values of `CCC(CC)COc1ccc(Cl)cc1Cn1nc(CCC(=O)O)cc1C` [Example 3a, 3-{1-[5-Chloro-2-(2-ethyl-butoxy)-benzyl]-5-methyl-1H-pyrazol-3-yl}-propionic acid] are 1100 nM, 180 nM, 5 nM and 220 nM.
For the compound `CCC(CC)COc1ccc(Br)cc1Cn1nc(CCC(=O)O)cc1C` [Example 3, 3-{1-[5-Bromo-2-(2-ethyl-butoxy)-benzyl]-5-methyl-1H-pyrazol-3-yl}-propionic acid], the Kb in experiment [1] was 1600 nM; in experiment [2] it was 75 nM; in experiment [3], 9 nM; in experiment [4], 140 nM.

For the origin of these results see patent US20140121258A1, “COMPOUNDS ACT AT MULTIPLE PROSTAGLANDIN RECEPTORS GIVING A GENERAL ANTI-INFLAMMATORY RESPONSE” (ALLERGAN, INC., priority 2010, published 2014).
